Patent publication US7560227B2, “Biomarkers of vulnerable atherosclerotic plaques and methods of use” (University of Massachusetts, priority 2005, dated 2009)
Where a SMILES comes first, the peptide text is derived from it. Bridges are numbered along the chain shown (N, C = ends). Where no end group is shown, it is not given here.

Legend:
myeloperoxidase [1] = target: T1, myeloperoxidase (Homo sapiens, UniProt P05164); assay: SE-HPLC (Superose-12) evaluation of twenty-three mer peptide binding to myeloperoxidase; details: for Shift to a retention time associated with myeloperoxidase: SE-HPLC, Superose-12 column, over incubation time
Method: (§1) FIGS. 7A and 7B are graphical representations of the results an evaluation of twenty- three mer peptide binding by SE-HPLC using a Superose-12 column. […] For example, the UV peak for the enzyme increased from 16% of total protein at 5 mm of incubation to 46% of total protein after 2 h incubation.
as §1, with “results of” for “results”, “of MPO-17 twenty-three” for “of twenty- three”, “mer polypeptide” for “mer peptide”, “5 min” for “5 mm”, “2 hours” for “2 h”

myeloperoxidase [2] = target: T2, myeloperoxidase (Homo sapiens, UniProt P05164); assay: Histological staining of bone marrow tissue slides with biotinylated peptides; details: biotinylated peptide, anti-biotin antibody, ABC alkaline phosphatase kit, hematoxylin counterstain
T2 construct: Slides of bone marrow tissue were used since they are known to contain myeloperoxidase; from tissue; host or cells: bone marrow tissue slides
T2 sequence (P05164 49-745): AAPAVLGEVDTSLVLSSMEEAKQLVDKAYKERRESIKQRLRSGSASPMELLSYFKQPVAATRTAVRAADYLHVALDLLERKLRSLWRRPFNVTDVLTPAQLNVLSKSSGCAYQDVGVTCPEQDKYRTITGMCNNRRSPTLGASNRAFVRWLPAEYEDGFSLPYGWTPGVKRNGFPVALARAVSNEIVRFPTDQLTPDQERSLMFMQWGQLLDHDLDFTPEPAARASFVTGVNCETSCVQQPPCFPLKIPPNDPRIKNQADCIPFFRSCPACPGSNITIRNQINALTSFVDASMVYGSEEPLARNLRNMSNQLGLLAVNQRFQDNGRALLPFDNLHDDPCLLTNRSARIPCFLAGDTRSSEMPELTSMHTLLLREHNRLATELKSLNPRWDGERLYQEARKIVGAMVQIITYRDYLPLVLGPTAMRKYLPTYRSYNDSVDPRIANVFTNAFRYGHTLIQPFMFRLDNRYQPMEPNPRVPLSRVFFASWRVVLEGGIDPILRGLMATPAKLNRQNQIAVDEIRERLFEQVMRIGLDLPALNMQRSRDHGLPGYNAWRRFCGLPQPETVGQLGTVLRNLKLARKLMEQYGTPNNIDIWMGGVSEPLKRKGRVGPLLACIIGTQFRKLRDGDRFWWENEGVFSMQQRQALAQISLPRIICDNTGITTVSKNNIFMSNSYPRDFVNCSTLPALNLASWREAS
Method: FIGS. 9A-9D show the results of histological studies. Slides of bone marrow tissue were used since they are known to contain myeloperoxidase. Treatments were as follows: Figure 9A, anti-myeloperoxidase antibody followed with biotinylated secondary antibody; FIG. 9B, biotinylated twenty-three mer MPO-17 peptide; FIG. 9C, biotinylated twenty-three mer control peptide; FIG. 9D, incubated with both the biotinylated twenty-three mer MPO-17 peptide and the biotinylated twenty-three mer control peptide, without primary antibody. Each slide was treated with an anti-biotin antibody and the ABC alkaline phosphatase kit (Vector labs) and counterstained with hematoxylin.
The binding of identified peptides to components of plaques was confirmed histologically as follows. Peptide sequences found in multiple selected clones were used to produce peptides using synthetic techniques. Peptides may also be produced using recombinant DNA techniques. The peptides are conjugated with a detectable label, such as biotin using known protocols. The biotin-labeled peptides are used to confirm the binding specificity determined in Example 1 and Example 2 by immunohistochemical analyses of tissue such as vulnerable plaques or tissues rich in components vulnerable plaques that have been exposed to biotin-labeled peptides.
FIGS. 9A-9D show the results of such histological studies. […]

myeloperoxidase [3] = target: T1, myeloperoxidase; assay: Binding of 99mTc-labeled phage clones to 125I-myeloperoxidase, separated on spin column / Sepharose 6B column; details: for Relative Binding (% bound): 99mTc-phage (10^10 pfu) with 125I-myeloperoxidase (750 ng), 15-30 minutes at 4 degrees Celsius, after subtraction of binding by control phage MPO-4; for Binding to 125I-myeloperoxidase compared with control clone MPO-4 (in words): shift of 125I to higher molecular weight fractions associated with 99mTc-phage
Method: (§2) FIG. 6 is a graphical representation of the results of studies of the binding of several phage clones to ^125-myeloperoxidase where the relative magnitude of binding was MPO-17>MPO-6>MPO-15 >MPO-1 >control (MPO-4). The consensus phage clones were radiolabeled with ^99mTc, using mercaptoacetyltriglycine (MAG3) as chelator, and the myeloperoxidase was iodinated using iodogen. The ^99mTc-phage were incubated with the ^125I-myeloperoxidase for 15-30 minutes, and then separated on a Sepharose 6B column. The shift of ^125I to the higher molecular weight fractions associated with ^99mTc-phage indicated binding.
After three rounds of selection, twenty phage clones were sequenced and four peptides occurring in more than one clone were identified. The phage clones representing the four sequences occurring in more than one clone plus a clone having a sequence that occurred in no other selected clone were amplified, titered and conjugated with NHS-MAG3 for radiolabeling with ^99mTc. See Winnard, P. Jr, et al., Preparation and use of NHS-MAG3 for technetium-99m labeling of DNA, Nucl. Med. Biol. 1997 July; 24(5):425-32. Myeloperoxidase was radiolabeled with ^125I via iodogen and a fixed amount (750 ng) was incubated with a constant number of phage plaque forming units (10^10) of each of the four consensus clones, plus a non-consensus clone as control, each radiolabeled with ^99mTc. Myeloperoxidase was added at what was estimated to be a 10-fold molar excess over peptide. After incubating for 15-30 minutes at 4 degrees Celsius, the binding of myeloperoxidase to each phage clone was determined by separating phage from myeloperoxidase using both a MicroSpin S-200 HR spin column and a Sepharose 6B open mini-column. The ^99mTc counts were used to identify the phage-containing fractions while the 125I counts in those fractions identified the concentration of bound myeloperoxidase. The peptide sequences of the 16 mer cysteine-constrained peptides in the display domain of the PVIII coat protein and the relative binding of four clones (MPO-1, MPO-6, MPO-15 and MPO-17) are listed in Table 2, below.
as §2, with “FIG. 8” for “FIG. 6”, “several bacteriophage” for “several phage”, “to ^125I-myeloperoxidase” for “to ^125-myeloperoxidase”, “was MPO-17>MPO-6>MPO-15>MPO-1>control” for “was MPO-17>MPO-6>MPO-15 >MPO-1 >control”, “using MAG3” for “using mercaptoacetyltriglycine (MAG3)”

[4] = system: LS-174T colon cancer cells; assay: Binding of 99mTc-labeled phage to LS-174T colon cancer cells in vitro; assay type: cell-based; details: for Relative Binding: Table 6, relative to control phage A3-12; for Binding compared to the control phage (A3-12): 6×10^5 cells per 50 μl, ~1.5×10^11 virions 99mTc-labeled phage
Method: For in vitro studies, LS-174T colon cancer cells, known to express the TAG-72 protein were incubated at a fixed ratio of cells (6×10^5 per 50 μl) to ^99mTc-labeled phage, ˜1.5×10^11 virions.

LS-174T tumor cubes = assay: Binding of 99mTc-labeled phage to LS-174T solid tumor cubes; details: ~1 mm tumor cubes incubated with serial dilutions of 99mTc-labeled phage
Method: Since TAG-72 expression is known to be higher in solid tumors than cells from culture, LS-174T cells were grown in nude mice, the resulting tumors removed and cut into ˜1 mm cubes for an assay using solid tumors. In addition to the labeled phage, the ^99mTc-labeled antibody was used to evaluate the level of antigen expression in tumor. For assay the tumor cubes were incubated with serial dilutions of ^99mTc-labeled phage or the ^99mTc-B72.3 antibody.

TAG-72 = assay: Competition of unlabeled phage with 99mTc-labeled B72.3 antibody on LS-174T tumor cubes; assay type: binding; details: 1 ng 99mTc-labeled B72.3 antibody, serial dilutions of unlabeled phage
Method: To test if phage A3-10 could compete with the B72.3, the LS-174T tumor cubes were incubated with 1 ng of ^99mTc-labeled B72.3 antibody and serial dilutions of unlabeled A3-10 phage. […] Thus, the phage is likely blocking the antibody, an indication of binding to the same target.

Row | Compound | Relative Binding (% bound) (myeloperoxidase [3]) | Binding to 125I-myeloperoxidase compared with control clone MPO-4 (in words) (myeloperoxidase [3]) | Relative Binding [4] | further results
1 | CC(C)C[C@H](NC(=O)[C@@H]1CSSC[C@H](NC(=O)[C@H](CCC(N)=O)NC(=O)CNC(=O)[C@H](CO)NC(=O)[C@@H](N)CCCNC(=N)N)C(=O)N[C@@H](Cc2c[nH]cn2)C(=O)N[C@@H](CC(=O)O)C(=O)N[C@@H](CC(=O)O)C(=O)N[C@@H]([C@@H](C)O)C(=O)N[C@@H](Cc2c[nH]c3ccccc23)C(=O)N[C@@H](CC(N)=O)C(=O)N1)C(=O)N[C@@H](C)C(=O)N[C@@H](CS)C(=O)N[C@H](C(=O)NCC(=O)NCC(=O)N[C@@H](CO)C(=O)NCC(=O)NCC(=O)NCC(=O)N[C@@H](CS)C(=O)O)C(C)C [MPO-17 twenty-three mer peptide] (H-RSGQCHDDTWNCLACVGGSGGGC-OH; disulfide 5-12 (inferred); N-terminus and C-terminus assumed) |  |  |  | Shift to a retention time associated with myeloperoxidase (myeloperoxidase [1]): gradual shift; UV peak for the enzyme (myeloperoxidase [1]; after 2 hours incubation of peptide with myeloperoxidase): 46 % of total protein; UV peak for the enzyme (myeloperoxidase [1]; at 5 min of incubation of peptide with myeloperoxidase): 16 % of total protein; Staining pattern (myeloperoxidase [2]): staining pattern similar to that seen with the anti-myeloperoxidase antibody
2 | AMPVCSLDRKACTAYQ [MPO-1] | 3.9% | binding above the binding of the control clone MPO-4 |  | 
3 | HVLGCSYATNSCAHNA (displayed on f88-4 phage pVIII; Chemically synthesized, clone MPO-5) [MPO-6, f88-4/Cys6 phage clone displaying this 16 mer cysteine-constrained peptide in the pVIII coat protein] | 5.8% | binding above the binding of the control clone MPO-4 |  | 
4 | LKNYCRKCSNRCTPTG [A3-21] |  |  | 1 | 
5 | MNYYCHQTTKTCRTHS [A3-12] |  |  | 1 | Phage bound with phage added (LS-174T tumor cubes): no change in phage bound except at the highest concentration
6 | NLIWCRKEFARCTSDM [A3-19] |  |  | 1.5 | Binding compared to the control phage (A3-12) [4]: about 1.5 fold
7 | NPGTCKDKWIECLLNG [A3-10] |  |  | 4.3 | Phage bound with phage added (LS-174T tumor cubes): linear increase in phage bound with phage added; Binding compared to the control phage (A3-12) [4]: 4,3 fold; Activity associated with the binding of 99mTc-B72.3 antibody (TAG-72): decreased with an increase in unlabeled phage added
8 | QMKQCWVNTATCWGLSGGSGGGC (cysteine pairing not given here; also: biotinylated) [biotinylated for histology] |  |  |  | Shift to a retention time associated with myeloperoxidase (myeloperoxidase [1]): no shift; Staining pattern (myeloperoxidase [2]; listed as control peptide): Only the bkie hematoxylin stain is observed
9 | RSGQCHDDTWNCLACV (displayed on f88-4 phage pVIII; Chemically synthesized, clone MPO-17) [f88-4/Cys6 phage clone displaying this 16 mer cysteine-constrained peptide in the pVIII coat protein] | 8% | highest binding |  | 
10 | TVMLCNPMEQGCRWMC (displayed on f88-4 phage pVIII; Chemically synthesized, clone MPO-15) [f88-4/Cys6 phage clone displaying this 16 mer cysteine-constrained peptide in the pVIII coat protein] | 4.5% | binding above the binding of the control clone MPO-4 |  | Relative Binding (% bound) (myeloperoxidase [3]; listed as MPO-5): 4.5%
